Results reported in patent US5430058A, “Pharmaceutical compositions comprising hydroxamate derivatives for iron removal” (Yeda Research and Development Co. Ltd., priority 1993, dated 1995).

Key:
[1] = system: trophozoite cultures of P. falciparum; assay: Neutralization of drug induced inhibition by addition of iron(III); type: cell-based, Plasmodium falciparum; conditions: stoichiometric addition of iron(III) salt / applied as iron(III)-complexes
Description: i. Neutralization of drug induced inhibition by addition of iron (III). Preformed ferric iron-carrier complexes were prepared by addition of increasing amounts of FeCl3 (in methanol) to a DMSO solution containing the indicated concentration of chelator. The mixtures were incubated for 1 hour at room temperature and added to microculture wells at the trophozoite stage at final concentrations of 30 μg/ml (for desferrioxamine) and 5 μg/ml (for reversed siderophores).
In order to assess this point, it was examined whether the reversed siderophores cause growth inhibition by virtue of iron deprivation (extraction at the level of the infected cell), as compared to formation of toxic iron complexes, the effect of chelator on trophozoite cultures was examined in the presence of increasing amounts of ferric salt. […] The concentration of drug used was the IC50 value depicted in Table 1. […] The complexes were evidently non-toxic to parasites, thus ruling out chelated iron-mediated lipid peroxidation as the modus of operandii of the drugs, a mechanism of antimalarial activity that has been proposed for other iron chelators. […]

[2] = system: plasma; assay: Pre-incubation of plasma with chelator, effect on parasite growth; type: cell-based, human; conditions: 40 fold IC50, then dialysis
Description: h. The effect of pre-incubation of red cells or plasma with drug on parasite growth. Red cell suspensions (5% hematocrit) in RPMI 1640 medium pH 7.4 (no plasma) were treated for 24-48 hrs with either 100 μg/ml of chelator or DMSO alone (<1% final concentration) in culture conditions. Chelator was removed by washing the cells 4 times with RPMI followed by 1 hour incubation at 37° C. Parasite growth was assayed after addition of gelatin enriched schizonts (>90%) as described above. […] The plasma was subsequently dialyzed for 24 hours against 800 ml 0.1% bovine serum albumin (BSA), and 10 mM glucose in phosphate buffered saline (PBS) pH 7.4, followed by an additional 24 hour dialysis against 400 ml of the same buffer and supplemented to the medium for parasite growth assays.
Plasma and uninfected red cells were separately treated with relatively high concentrations of chelators (100 μg/ml) in order to evaluate whether the site of action of the lipophilic chelators was associated with components of the plasma and/or the uninfected red cell.

[3] = system: normal red cells; assay: Extraction of chelatable iron, normal red cells (NRC); type: cell-based, human; conditions: Experiment 1, NRC, 12 μM, 2 hours at 37° C (untreated <0.1)
Description: (§1) l. Extraction of chelatable iron. Trophozoite stage parasites were obtained from step gradient of Percoll-3% L-alanine in phosphate buffered saline (10 mM Na-phosphate, 150 mM NaCl, pH 7.4). Cell suspensions of 100% parasitemia were adjusted to 1% hematocrit and placed in RPMI growth medium supplemented with 50 mM sucrose and 20 mM glucose. Pretreatment of cells was done with 12 μM of the indicated SF derivative or DMSO for 2 hours at 37° C. at which time the cells were washed twice in 500× volume of buffer containing 150 mM NaCl, 10 mM HEPES and 50 mM sucrose pH=7.4 Next the cells were incubated for additional 3 hours in 6.8 μM NBD-DFO and washed to remove fluorescent probe. Measurements of chelatable iron were carried out in the TCA soluble fraction of freeze thaw lysates as described by Lytton, S. D. et al., 1991 Mol. Pharmacol. 40:584-590.
(§2) Iron extractions were performed on cell suspensions treated (yes) or untreated (no) with 12 μM RSF n2-ileu for 2 hours at 37° C. Fluorescence assays of chelatable iron in non-infected (NRC) and in parasitized (IRC) red cells were carried out as described by Lytton et al., (1991) Mol. Pharmacol. 40:584.

[4] = system: red cells; assay: Penetration of chelator into red cells; type: cell-based, human
[5] = system: Plasmodium falciparum; assay: Antimalarial activity, general comparison and statements; type: cell-based
Description: g. Bioassay of iron carrier antimalarial activity. The antimalarial activity was assayed by adding the compounds from concentrated stock solutions (in DMSO) to microcultures (24 wells, Costar) containing infected red cells (2.5% hematocrit and 2% parasitemia). The cultures were usually synchronized (4-7 hrs. windows) by incubation in 300 mM Ala, 10 mM TRIS-Cl in conjunction with gelatin flotation and used either at the trophozoite (1-2% parasitemia) or at the ring stage (4-6% parasitemia) of the erythrocyctic cycle. After the indicated time of incubation with drug and either previous to or after washing 3 times with 100 volumes growth medium, the cells were supplemented with 6 μCi of either [^3 H]-hypoxanthine or [^3 H]-Ileu (Amersham, England) per well and parasite growth assessed after 24-48 hours by harvesting the labelled cells onto glass-fiber filters (Tamar, Inc. Jerusalem) and counting of the radioactivity.
The antimalarial activity of the different chelators was initially evaluated on cultures of trophozoites which were exposed for 24 hours to different concentrations of chelators. Following that period, [^3 H]-hypoxanthine or [^3 H]-Ileu were added and 24 hours later the parasitemia and incorporation of label into macromolecular material was determined.

[6] = system: human Hep2 hepatoma cells; assay: Iron extraction from hepatoma cells (NBD-DFO fluorescence); type: cell-based; conditions: cells pre-exposed to chelator (80 μg/ml, 18 hour)
[7] = system: transferrin; assay: Effect on iron in transferrin; conditions: after the same time of exposure
[8] = system: ferritin; assay: Effect on iron in ferritin; design: species or system horse; conditions: after the same time of exposure
Description: Experimental testing of iron(III)-chelation properties RSF's were performed on human red blood cell lysates (normal and malaria parasitized), intact cells (4 hrs incubation times at 37° C.), free horse spleen ferritin (4-10 hrs at 37° C.) and ferritin-containing HEP-2 (human hepatoma) cells (4-10 hrs at 37° C.) using RSF1-ileu.

[9] = system: infected red cells; assay: Extraction of chelatable iron, infected red cells (IRC); type: cell-based, human erythrocytes infected with P. falciparum; conditions: 12 μM
Description: as §1, §2

Q: Which “Effect of iron(III) on antimalarial activity” value [1] does the source give for `CC(=O)N(O)CCCCCNC(=O)CCC(=O)N(O)CCCCCNC(=O)CCC(=O)N(O)CCCCCN` [DFO, desferrioxamine B, reference compound] here?
A: fully averted their antimalarial activity

Q: How did the “Ability of plasma to support parasite growth after pre-treatment” value [2] turn out when `CC[C@H](C)[C@H](NC(=O)CCOCC(CC)(COCCC(=O)N[C@H](C(=O)N(C)O)[C@@H](C)CC)COCCC(=O)N[C@H](C(=O)N(C)O)[C@@H](C)CC)C(=O)N(C)O` [SF1-ileu] was run?
A: no significant effect

Q: What about the “Chelatable iron after RSF pretreatment” value [3] of the same molecule?
A: 0.7 nmoles/10^10 cells

Q: And the “Penetration into red cells” value [4]?
A: can easily penetrate into red cells

Q: And the “Efficiency relative to DFO” value ([5]; 24-48 hours exposure, various strains)?
A: 6-13 fold

Q: And the “Speed of action relative to desferrioxamine” value ([5]; faster acting than desferrioxamine)?
A: 20 fold

Q: What about the “Arrest of parasite growth” value ([5]; infected red blood cells) of the same molecule?
A: arresting parasite growth irreversibly within a few hours

Q: And the “Potency relative to desferrioxamine” value ([5]; more potent than desferrioxamine)?
A: 15 fold

Q: And the Chelatable cytosolic iron [6]?
A: demonstrably reduced

Q: And the “Effect on iron in transferrin” value [7]?
A: not substantially affecting

Q: What about the “Effect on iron in ferritin” value [8] of the same molecule?
A: not substantially affecting iron in ferritin

Q: What about the “Chelatable iron after RSF pretreatment” value ([9]; Experiment 1, IRC, 2 hours at 37° C (untreated 4.6)) of the same molecule?
A: 0.9 nmoles/10^10 cells

Q: And the “Chelatable iron after RSF pretreatment” value ([9]; Experiment 2, IRC, 2 hours at 37° C (untreated 2.9))?
A: 0.3 nmoles/10^10 cells

Q: And the “Reduction of chelatable iron” value ([9]; pretreatment of trophozoites, 2 hours)?
A: 5-10 fold
